Assay results: patent US8349883B2, “Hydroxamate-based inhibitors of deacetylases B” (Novartis AG, priority 2008, dated 2013)

Legend:
HCT116 = HCT116 IC50; type: cell-based; details: Homo sapiens, HCT-116
HDAC-1 = target: T1, HDAC-1 (Homo sapiens, UniProt Q13547); experiment: HDAC inhibition assay (purified GST-HDAC protein); type: biochemical
T1 construct: made in house; host or cells: Sf9 or Sf21 insect cells (baculovirus, donor vector pFB-GSTX3)
Text: The baculovirus donor vector pFB-GSTX3 was used to generate a recombinant baculovirus that can express the HDAC polypeptide. Transfer vectors containing the HDAC coding region were transfected into the DH10Bac cell line (GIBCO) and plated on selective agar plates. Colonies without insertion of the fusion sequence into the viral genome (carried by the bacteria) were blue. Single, white colonies were picked and viral DNAs (bacmid) were isolated from the bacteria by standard plasmid purification procedures. Sf9 cells or Sf21 (American Type Culture Collection) cells were then transfected in […] flasks with the viral DNA using Cellfectin reagent.
Virus-containing media was collected from the transfected cell culture and used for infection to increase its titer. Virus-containing media obtained after two rounds of infection was used for large-scale protein expression. For large-scale protein expression 100 cm^2 round tissue culture plates were seeded with 5×10^7 cells/plate and infected with 1 mL of virus-containing media (at an approximately MOI of 5). After 3 days, the cells were scraped off the plate and centrifuged at 500 rpm for 5 minutes. Cell pellets from 10-20, 100 cm^2 plates, were re-suspended in 50 mL of ice-cold lysis buffer (25 mM tris-HCl, pH 7.5, 2 mM EDTA, 1% NP-40, 1 mM DTT, 1 mM P MSF). The cells were stirred on ice for 15 minutes and then centrifuged at 5,000 rpms for 20 minutes.
The centrifuged cell lysate was loaded onto a 2 mL glutathione-sepharose column (Pharmacia) and was washed thrice with 10 mL of 25 mM tris-HCl, pH 7.5, 2 mM EDTA, 1 mM DTT, 200 mM NaCl. The GST-tagged proteins were then eluted by 10 applications (1 mL each) of 25 mM tris-HCl, pH 7.5, 10 mM reduced-glutathione, 100 mM NaCl, 1 mM DTT, 10% glycerol and stored at −70° C.
HDAC assays with purified GST-HDAC protein were carried out in a final volume of 30 μL containing 15 ng of GST-HDAC protein, 20 mM tris-HCl, pH 7.5, 1 mM MnCl2, 10 mM MgCl2, 1 mM DTT, 3 μg/mL poly(Glu,Tyr) 4:1, 1% DMSO, 2.0 μM ATP (γ-[^33P]-ATP 0.1 μCi). The activity was assayed in the presence or absence of inhibitors. The assay was carried out in 96-well plates at ambient temperature for 15 minutes under conditions described below and terminated by the addition of 20 μL of 125 mM EDTA. Subsequently, 40 μL of the reaction mixture were transferred onto EMMOBILON-PVDF membrane (Millipore) previously soaked for 5 minutes with methanol, rinsed with water, then soaked for 5 minutes with 0.5% H3PO4 and mounted on vacuum manifold with disconnected vacuum source. After spotting all samples, a vacuum was connected and each well rinsed with 200 μL 0.5% H3PO4. Membranes were removed and washed four times on a shaker with 1.0% H3PO4, once with ethanol. Membranes were counted after drying at ambient temperature, mounting in Packard TopCount 96-well frame, and addition of 10 μL/well of MICROSCINT™ (Packard). IC50 values were calculated by linear regression analysis of the percentage inhibition of each compound in duplicate, at 4 concentrations (usually 0.01, 0.1, 1 and 10 μM).
• Input: 3×4 μL stopped assay on IMMOBILON membrane, not washed • Background (3 wells): assay with H2O instead of enzyme • Positive control (4 wells): 3% DMSO instead of compound • Bath control (1 well): no reaction mix
IC50 values were calculated by logarithmic regression analysis of the percentage inhibition of each compound at 4 concentrations (usually 3- or 10-fold dilution series starting at 10 μM). In each experiment, the actual inhibition by reference compound was used for normalization of IC50 values to the basis of an average value of the reference inhibitor: Normalized IC50=measured IC50 average ref IC50/measured ref IC50
Example: Reference inhibitor in experiment 0.4 μM, average 0.3 μM, Test compound in experiment 1.0 μM, normalization: 0.3/0.4=0.75 μM
For example, known HDAC inhibitors or a synthetic derivative thereof may be used as reference compounds.

T1 sequence (Q13547 whole entry, species assumed): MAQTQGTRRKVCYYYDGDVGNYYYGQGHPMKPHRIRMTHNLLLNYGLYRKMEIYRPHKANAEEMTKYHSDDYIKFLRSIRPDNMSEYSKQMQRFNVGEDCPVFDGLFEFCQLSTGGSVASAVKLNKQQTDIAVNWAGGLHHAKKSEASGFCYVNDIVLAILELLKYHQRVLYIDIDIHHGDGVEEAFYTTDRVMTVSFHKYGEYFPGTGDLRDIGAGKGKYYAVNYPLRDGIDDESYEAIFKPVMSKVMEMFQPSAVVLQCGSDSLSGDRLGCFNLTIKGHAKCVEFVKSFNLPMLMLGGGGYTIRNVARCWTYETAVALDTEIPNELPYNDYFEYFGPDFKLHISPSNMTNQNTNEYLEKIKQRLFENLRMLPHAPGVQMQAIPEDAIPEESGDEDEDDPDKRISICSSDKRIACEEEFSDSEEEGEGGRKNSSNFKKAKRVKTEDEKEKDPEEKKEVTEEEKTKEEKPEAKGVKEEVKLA

Row | SMILES | IC50 (HCT116) [nM] | IC50 (HDAC-1) [nM]
1 | O=C(/C=C/c1ccc(C2CCCN2CCc2cnc3ccccn23)cc1)NO (centres unmarked) [Compound 53, (E)-N-Hydroxy-3-{4-[1-(2-imidazo[1,2-a]pyridin-3-yl-ethyl)-pyrrolidin-2-yl]-phenyl}-acrylamide] | 1 | 0.9
2 | O=C(/C=C/c1ccc(C2CCCN2CCc2c[nH]c3ccccc23)cc1)NO (centres unmarked) [Compound 3, (E)-N-Hydroxy-3-(4-{1-[2-(1H-indol-3-yl)-ethyl]-pyrrolidin-2-yl}-phenyl)-acrylamide] | 1.2 | 1
3 | O=C(/C=C/c1ccc([C@@H]2CCCN2CCC2CCOCC2)cc1)NO [Compound 42, (E)-N-Hydroxy-3-(4-{(S)-1-[2-(tetrahydro-pyran-4-yl)-ethyl]-pyrrolidin-2-yl}-phenyl)-acrylamide] | 53 | 32
4 | Cc1[nH]c2ccccc2c1CCN1CCCC1c1ccc(/C=C/C(=O)NO)cc1 (centres unmarked) [Compound 1, (E)-N-Hydroxy-3-(4-{1-[2-(2-methyl-1H-indol-3-yl)-ethyl]-pyrrolidin-2-yl}-phenyl)-acrylamide] | 1 | 3
5 | O=C(/C=C/c1ccc([C@@H]2CCCN2CCc2cn(Cc3ccccc3)nn2)cc1)NO [Compound 78, (E)-3-(4-{(S)-1-[2-(1-Benzyl-1H-[1,2,3]triazol-4-yl)-ethyl]-pyrrolidin-2-yl}-phenyl)-N-hydroxy-acrylamide] | 120 | 22
6 | O=C(/C=C/c1cc(F)c([C@@H]2CCCN2CCc2cnn3ccccc23)c(F)c1)NO [Compound 94, (E)-3-{3,5-Difluoro-4-[(S)-1-(2-pyrazolo[1,5-a]pyridin-3-yl-ethyl)-pyrrolidin-2-yl]-phenyl}-N-hydroxy-acrylamide] | 5 | 1.4
7 | O=C(/C=C/c1ccc([C@@H]2CCCN2CCn2cccn2)cc1)NO [Compound 63, (E)-N-Hydroxy-3-{4-[(S)-1-(2-pyrazol-1-yl-ethyl)-pyrrolidin-2-yl]-phenyl}-acrylamide] | 180 | 42
8 | O=C(/C=C/c1ccc([C@@H]2CCCN2CCc2c(-c3cnccn3)nn3ccccc23)cc1)NO [Compound 49, (E)-N-Hydroxy-3-(4-{(S)-1-[2-(2-pyrazin-2-yl-pyrazolo[1,5-a]pyridin-3-yl)-ethyl]-pyrrolidin-2-yl}-phenyl)-acrylamide] | 3 | 3
9 | CN1CCN(CCc2cnn3ccccc23)C(c2ccc(/C=C/C(=O)NO)cc2)C1 (centres unmarked) [Compound 90, (E)-N-Hydroxy-3-{4-[4-methyl-1-(2-pyrazolo[1,5-a]pyridin-3-yl-ethyl)-piperazin-2-yl]-phenyl}-acrylamide] | 34 | 8
10 | O=C(/C=C/c1ccc([C@@H]2CCCN2CCc2nnn(C3CCC3)n2)cc1)NO [Compound 105, (E)-3-(4-{(S)-1-[2-(2-Cyclobutyl-2H-tetrazol-5-yl)-ethyl]-pyrrolidin-2-yl}-phenyl)-N-hydroxy-acrylamide] | 160 | 120
11 | O=C(CCc1ccc([C@H]2CCCN2CCc2cnn3ccccc23)cc1)NO [Compound 121, N-Hydroxy-3-{4-[(R)-1-(2-pyrazolo[1,5-a]pyridin-3-yl-ethyl)-pyrrolidin-2-yl]-phenyl}-propionamide] | 180 | 31

The remaining lines, values ahead:

Row | IC50 (HCT116) [nM] | IC50 (HDAC-1) [nM] | SMILES
12 | 10 | 7 | CC(C)(C)c1[nH]nnc1CCN1CCC[C@H]1c1ccc(/C=C/C(=O)NO)cc1 [Compound 108, (E)-3-(4-{(S)-1-[2-(5-tert-Butyl-1H-[1,2,3]triazol-4-yl)-ethyl]-pyrrolidin-2-yl}-phenyl)-N-hydroxy-acrylamide]
13 | 61 | 28 | Cc1cc(C)n(CCN2CCC[C@H]2c2ccc(/C=C/C(=O)NO)cc2)n1 [Compound 66, (E)-3-(4-{(S)-1-[2-(3,5-Dimethyl-pyrazol-1-yl)-ethyl]-pyrrolidin-2-yl}-phenyl)-N-hydroxy-acrylamide]
14 | 4 | 1.2 | O=C(/C=C/c1ccc([C@@H]2CCCN2CCc2c[nH]c3ncccc23)cc1)NO [Compound 51, (E)-N-Hydroxy-3-(4-{(S)-1-[2-(1H-pyrrolo[2,3-b]pyridin-3-yl)-ethyl]-pyrrolidin-2-yl}-phenyl)-acrylamide]
15 | 170 | 25 | Cc1nn(CCN2CCC[C@H]2c2ccc(/C=C/C(=O)NO)cc2)c(C)c1Br [Compound 69, (E)-3-(4-{(S)-1-[2-(4-Bromo-3,5-dimethyl-pyrazol-1-yl)-ethyl]-pyrrolidin-2-yl}-phenyl)-N-hydroxy-acrylamide]
16 | 8 | 2.4 | Cc1nn2ccccc2c1CCN1CCC[C@@H]1c1ccc(/C=C/C(=O)NO)cc1 [Compound 45, (E)-N-Hydroxy-3-(4-{(R)-1-[2-(2-methyl-pyrazolo[1,5-a]pyridin-3-yl)-ethyl]-pyrrolidin-2-yl}-phenyl)-acrylamide]
17 | 11 | 3 | O=C(/C=C/c1ccc(C2CCCN2CCc2ccc(O)cc2)cc1)NO (centres unmarked) [Compound 20, (E)-N-Hydroxy-3-(4-{1-[2-(4-hydroxy-phenyl)-ethyl]-pyrrolidin-2-yl}-phenyl)-acrylamide]
18 | 9 | 5 | O=C(/C=C/c1ccc([C@@H]2CCCN2CCc2ccsc2)cc1)NO [Compound 35, (E)-N-Hydroxy-3-{4-[(S)-1-(2-thiophen-3-yl-ethyl)-pyrrolidin-2-yl]-phenyl}-acrylamide]
19 | 7 | 5 | O=C(/C=C/c1ccc(C2CCCN2CCc2ccccc2Cl)cc1)NO (centres unmarked) [Compound 25, (E)-3-(4-{1-[2-(2-Chloro-phenyl)-ethyl]-pyrrolidin-2-yl}-phenyl)-N-hydroxy-acrylamide]
20 | 8 | 7 | Cc1nn(C(C)(C)C)c(C)c1CCN1CCC[C@H]1c1ccc(/C=C/C(=O)NO)cc1 [Compound 61, (E)-3-(4-{(S)-1-[2-(1-tert-Butyl-3,5-dimethyl-1H-pyrazol-4-yl)-ethyl]-pyrrolidin-2-yl}-phenyl)-N-hydroxy-acrylamide]
21 | 1.4 | 0.8 | CCc1n[nH]c(CC)c1CCN1CCC[C@H]1c1ccc(/C=C/C(=O)NO)cc1 [Compound 99, (E)-3-(4-{(S)-1-[2-(3,5-Diethyl-1H-pyrazol-4-yl)-ethyl]-pyrrolidin-2-yl}-phenyl)-N-hydroxy-acrylamide]
22 | 77 | 21 | O=C(/C=C/c1ccc(C2CCCN2CCc2ccccn2)cc1)NO (centres unmarked) [Compound 34, (E)-N-Hydroxy-3-{4-[1-(2-pyridin-2-yl-ethyl)-pyrrolidin-2-yl]-phenyl}-acrylamide]
23 | 31 | 19 | Cc1ccnn1CCN1CCC[C@H]1c1ccc(/C=C/C(=O)NO)cc1 [Compound 72, (E)-N-Hydroxy-3-(4-{(S)-1-[2-(5-methyl-pyrazol-1-yl)-ethyl]-pyrrolidin-2-yl}-phenyl)-acrylamide]
24 | 4.3 | 2.7 | CC(C)(C)c1[nH]c2ncccc2c1CCN1CCC[C@H]1c1ccc(/C=C/C(=O)NO)cc1 [Compound 52, (E)-3-(4-{(S)-1-[2-(2-tert-Butyl-1H-pyrrolo[2,3-b]pyridin-3-yl)-ethyl]-pyrrolidin-2-yl}-phenyl)-N-hydroxy-acrylamide]
25 | 97 | 19 | O=C(/C=C/c1ccc(C2CCCN2CCc2ccc(Cl)c(Cl)c2)cc1)NO (centres unmarked) [Compound 23, (E)-3-(4-{1-[2-(3,4-Dichloro-phenyl)-ethyl]-pyrrolidin-2-yl}-phenyl)-N-hydroxy-acrylamide]
